US20150320836A1, “CRYOPRESERVATION OF CELLS INSIDE A MACRO-ENCAPSULATION DEVICE” (The Regents of the University of California, priority 2012, published 2015)
Read-outs that look alike come from different tables or passages of the source.

Columns and labels:
[1] = tested on: islet like cell clusters (ICCs) of human Ins-G cells; type: cell-based; conditions: for viable yield: human
Protocol: While the level of DMSO will gradually decrease during elution, the extreme point was tested and the same high level of DMSO was maintained for the longevity of the entire exposure.
Increase of temperature of elution will shorten the time of elution but DMSO might cause increased toxicity at increased temperature. Driven by this dilemma, extreme treatments of post-thawed clusters were checked starting with immediate washing of DMSO, maintaining them for 20 min on 4° C. before washing, at 25° C. for 10 and 20 min and at +37° C. at 10 and 20 min (Experiment 3, FIG. 3A). […] There was one exception however, the cells incubated at room temperature for 20 minutes performed slightly poorer than the other treatments. […] This phenomenon was observed over a large number of experiments (N=6), but its basis is unclear. […] Further experiments would be needed to determine with certainty that RT is actually more detrimental than +37° C. or ice. The surviving cells retain insulin expressing capacity for all treatments (FIG. 3B).
Ultimately, the ability to freeze cell clusters inside an encapsulation device may require that the cells survive the time required to remove CPA upon thawing. Normally, when (unencapsulated) cells are thawed, CPA is removed quickly, either by centrifugation or by extensive dilution into culture media. However, for a cell-filled device, CPA removal will be accomplished via diffusion of CPA out of device into a large volume of wash media, until equilibration is reached. We estimated that approximately 20 minutes will be required to reach equilibrium, during which time cells are exposed to CPA. We therefore first examined the effects of post-thaw exposure to CPA in unencapsulated ICCs. Because equilibrium is also temperature dependent, we exposed thawed ICCs to CPA at 25° C. or 37° C. As we can see from FIG. 3A, sample 1, a control which was not exposed to CPA or frozen, reattachment of ICCs to tissue culture plates is 48%, lower than reattachment of dissociated cells (FIG. 1, sample 1). […]

[2] = tested on: insulin-GFP transgene in human Ins-G ICCs; assay: Insulin-GFP expression after freezing ICCs and post-thaw DMSO exposure; type: cell-based; conditions: frozen, post-thaw DMSO 20 minutes at 37° C.
From the text: In addition to survival, it is important that ICCs retain insulin gene expression during these manipulations. Human Ins-G cells express endogenous insulin message in response to tamoxifen (which activates the transcription factor […] by promoting translocation from the cytoplasm to the nucleus). The cells were also engineered to express GFP from an insulin transgene. Therefore, GFP expression in response to tamoxifen is a surrogate for insulin expression. We examined GFP expression in control ICCs (not frozen, not exposed to DMSO) as well as in cells frozen and exposed to DMSO for 20 minutes at 37° C. (FIG. 3B).

human Ins-G cells [3] = type: cell-based
Protocol: The sensitivity of dissociated human Ins-G cells to DMSO without cryopreservation (CP) was investigated. […] Temperatures ranging from 0° C. to 37° C. were investigated. Regardless, cell viability was practically indistinguishable from control cells not exposed to DMSO (FIG. 1A, column #1).
In prior studies with a macro-encapsulation device, we loaded cells into devices immediately prior to transplantation. Thus, until now we have not exposed encapsulated cells to CPA, yet the ability to freeze preloaded devices would ensure reproducibility between experiments and among users. The process of loading cells into the device requires approximately 20 min; beginning when cells are drawn up into a Hamilton syringe and slowly dispensed into the device, and ending when the syringe has been removed from the device port and the port has been sealed. We hypothesized therefore, that cells must withstand pre-freeze exposure to CPA for 20 minutes in order to be successfully cryopreserved in devices. […]
(§1) Cells cultured as monolayers were dissociated with Accutase, pelleted, and resuspended with either normal culture media (CM) as a positive control for cell viability or with the Freeze Medium (FM) containing 10% DMSO. […] Following incubation time, cells were allowed to reattach to tissue culture plates for 24 hours and then assessed for attachment and viability. […]

human Ins-G cells [4] = assay: Freezing dissociated Ins-G cells after pre-freeze incubation with DMSO; type: cell-based
Protocol: The effects of preincubation with DMSO on freeze/thaw viability were investigated. Freezing dissociated cells pre-exposed to Freeze Media containing 10% DMSO (FIG. 1B) also had no effect on cryosurvival, which per se was exceptionally good (up to 77-79% to control). In order to verify requirement for cryoprotective agents (CPA) in freezing, a sample was frozen in culture media (no DMSO). As expected, survival was very poor (11% in comparison to the positive control). […] Without being bound to theory, a possible explanation is that cell mortality resulted from slow (suboptimal) freezing injury, when cells are frozen at the rate substantially slower than the equilibrium “Mazur's rate” when the cells are just in equilibrium with freezing outer milieu. The suboptimal rates in the inverted U curve usually contributed to the effects of highly concentrated solutes rather than immediate cell destruction and fast necrosis associated with the supra-optimal (fast freezing, according to the 2-factor hypothesis developed by Mazur (Mazur et al. (1972) Experimental Cell Res., 71:345-349; Mazur et al. (2008) Biol Reprod, 78:2-12). The cell membrane rupture and other colligative osmotic damage due to excessive shrinkage and swelling usually manifest quickly as the loss of selective permeability properties so the cells become permeable to large particle dyes such Trypan Blue, soon after the treatment. The osmotic damage usually decreases with the temperature and step-wise addition and dilution (which, in fact, exposes the cells to CPA longer than an abrupt one-step addition or dilution). In contrast, a long exposure to a CPA or/and to very concentrated solutions of the cryoprotectant can manifest later in the form of, e.g., death due to specific chemical toxicity, particularly on membrane and epigenetic level as it may affect protein folding and membrane lipid bilayers, as it is shown for some types of cells (see, for example (Katkov II et al. (2006) Cryobiology, 53:194-205) for references. In contrast to osmotic damage, chemical toxicity usually exacerbates at longer exposure at higher temperature, and the prevalence of one mode vs. another can be easily differentiate by treating cells with higher temperatures and/or for longer exposure to the CPA (Katkov II (2011) Cryobiology, 62:242-4; Katkov II et al. (1998) Cryobiology, 37:325-38; Katkov II et al. (2007) Cryo Letters, 28:409-27).
as §1

[5] = tested on: islet like cell clusters (ICCs) of human Ins-G cells; assay: ICCs loaded or frozen in TheraCyte encapsulation device; type: cell-based; conditions: frozen in TheraCyte device in 10% DMSO freezing medium
Protocol: Observing that the clusters can be exposed to DMSO both before freezing and after thawing when the cells were frozen in cryovials, cells were then frozen in the TheraCyte™ device (FIGS. 4A-C). Cells were exposed to DMSO during loading into the device. The port was then trimmed so that the device could fit a 1.5 mL cryovial which also contained 10-% DMSO freezing medium and froze them. After the vial was thawed, DMSO was eluted by placing the device in gently swirling medium solution (using magnetic stir bar). Without being limited by theory, this treatment may be sufficient to wash out the majority of DMSO before transplantation. Moreover this procedure mimics slow elution if the device is transplanted immediately after thawing, as a low concentration of DMSO is presumed to be non-toxic even for small animals. […] Barely 1/10 of loaded cells survived the whole procedure (including cutting device in pieces and placing into the dish, washing that out in 48 hrs, etc. (Experiment 4, FIG. 5). There can be several explanations for the cell loss, such as following.
We next addressed the effects of freezing ICCs inside the encapsulation device. As a control for freezing, ICCs resuspended in FM were loaded into devices which were sealed and then immediately opened and cells removed. Cell attachment following release from device averaged 64% and of the attached cells, 59% were viable. […]

hESCs = assay: Exposure of dissociated hESCs to cryoprotective agent; type: cell-based, human; conditions: 10% DMSO 10 or 30 min, 4° C. or 37° C., no freezing
Protocol: hESCs are cultured as monolayers and are dissociated with Accutase, pelleted, and resuspended with either normal culture media (CM) as a positive control for cell viability or with the Freeze Medium (FM) containing 10% DMSO. Cells are either plated immediately in CM or incubated in FM for up to 30 minutes. Following incubation time, cells are allowed to reattach to tissue culture plates for 24 hours and then assessed for attachment and viability. DMSO concentration, freezing time, and freezing temperature, for example, may be varied to obtain best results for a given culture. […] As a result, the Viable Yield (the product of Attachment and Viability) is also similar among the 4 incubation conditions. Thus, exposure to DMSO without freezing produces a minimal effect on survival of dissociated cells monolayer cultures.

[6] = tested on: islet like cell clusters (ICCs) of human Ins-G cells; assay: Freezing ICCs: pre-freeze DMSO exposure and centrifugation; type: cell-based
Protocol: To more closely mimic the morphological structure of pancreatic islets, cells cultured as 3-dimensional ICCs were investigated. The first technical question was how to harvest clusters, whether by gentle (200 g×5 min) centrifugation or by settling by gravitational force (1 g). Here prefreeze exposure of the clusters to 10% DMSO at room temperature and +37° C. before freezing was investigated.
Two negative controls were employed. First (sample 1 on FIG. 2) were non-frozen clusters but the cells were exposed to 10% of DMSO for 20 min at +37° C. and centrifuged (200 g×5 min) The second control (Column #2) were cells that were not exposed top DMSO and frozen w/o it, with the same other procedures that in the first control. […] Apparently, some clusters were lost because they had not settled to the bottom of the tube either due to sub-optimal time or length of column 15-mL tube (Katkov II et al. (1999) Cell Biochem Biophys, 31:231-45). Cell clusters, it was observed, are more sensitive than dissociated cells from monolayer cultures even before and freezing (viability after thawing for the re-attached cells was in range of 61-72%, which was substantially lower than in monolayers (Experiment 2, FIG. 2). Thus, natural sedimentation was used with an increased time and decreased column length by using 50-mL conical tubes instead for the next experiments. […]

[7] = pre-freeze 10% DMSO 10 or 30 min, +4° C. or +37° C.

## C[S+](C)[O-] [DMSO, dimethyl sulfoxide]
[1]
  tolerance of post-thaw exposure to DMSO: well tolerated
  viable yield: 35-38%
[1]; 20 min
  viable yield: 21%
[2]
  GFP expression versus control ICCs: no significant difference
Human Ins-G cells [3]
  tolerance of exposure to 10% DMSO: well tolerated
Human Ins-G cells [3]; human, 10 %
  Viable Yield (product of Attachment and Viability): 63-73%
Human Ins-G cells [4]; frozen in Freeze Media with 10% DMSO after pre-exposure
  cryosurvival relative to control: 77-79%
Human Ins-G cells [4]; [7]
  Attachment efficiency after freezing: 73-77%
  Viable Yield after freezing: 63-73%
  viability of re-attached cells after freezing: 86-92%
[5]
  fraction of loaded cells surviving the whole procedure: 1/10
hESCs
  survival: ≥ 80%
[6]; ICCs frozen after pre-freeze 10% DMSO exposure
  viability after thawing of re-attached cells: 61-72%
[6]; clusters exposed to 10% DMSO at +37° C. for 20 min, centrifuged 200 g×5 min
  viable yield: 31%
